# Reference: a melting point compilation (Tetko et al.; mined from patent text by program, amines drawn as free bases though some values may be those of a salt)
row,melting point [°C],Structure (SMILES)
1,140,O=C1c2ccccc2C(=O)N1CCC(=O)N(c1ccccc1)c1ccccc1
2,113 to 115,CCCn1c(C)c(C(C)=O)c(N)c1-c1ccccc1
3,208 to 210,O=C1C=C(c2ccc(Cl)c(Cl)c2)C(=O)N1Nc1ccccc1
4,254 to 255,Nc1nnc(-c2ccc3ncn(-c4ccccc4Cl)c3c2)o1
5,292 to 293,CCCc1nn(C)c2c(=O)[nH]c(Cc3ccc(C(=O)O)cc3)nc12
6,221 to 223,CCn1c(=O)c(-c2c(Cl)cccc2Cl)cc2cnc(Nc3ccc(OC)c(OC)c3)nc21
7,116 to 120,O=C(Nc1ccc(CN2C(=O)C=C(CCO)Sc3ccccc32)cc1)c1ccccc1-c1ccccc1
8,116 to 119,CCCc1nc2ccccc2n1CC1=C(c2cccc(-c3nnn[nH]3)c2)CCC1
9,64 to 66,COC(=O)c1ncoc1-c1cccs1
10,181 to 184,CCSc1nc(=O)[nH]cc1C
11,151 to 153,O=S(=O)(Nc1ccccc1/C=C/c1ccncc1)c1ccc(OC(F)(F)F)cc1
12,65.5 to 67.5,Fc1ccc(CC(=S)N2CCCCC2)cc1
13,154 to 156,OC(C1=NCCN1)(c1ccccc1)c1cccc(Cl)n1 (configuration not stated)
14,132 to 133,O=c1c2cnc(-c3ccccc3)nc2sn1CCc1ccccn1
15,58 to 63,c1cc2c3c(c1)C1CCCCCCC1N3CCNC2 (configuration not stated)
16,179 to 180,Cc1cc(Br)cnc1CCCCNC1=NS(=O)N=C1NCc1cccnc1 (configuration not stated)
17,309 to 311,Oc1ccc(O)c(-c2nc3cc(O)ccc3o2)c1
18,93,O=c1cnn(CCCCCl)c(=O)[nH]1
19,87 to 90,COC=C(C(=O)OC)N(C)c1cc(-c2cccc(OC)c2)ncn1
20,107 to 108,OC(c1ccc(Oc2ccc(Cl)cc2Cl)cc1)C(F)n1cncn1 (configuration not stated)
21,170 to 171,N#Cc1ccccc1OCCc1c[nH]cn1
22,195 to 197,OCc1ccc(-c2ccc(CO)cc2)cc1
23,271 to 272,CSc1ccc2ncn(/C=C/C(=O)O)c(=O)c2c1
24,> 200,N#Cc1c(N2CCc3ccccc3CC2)nc(C2CC2)[nH]c1=O

row,melting point [°C],Structure (SMILES)
1,81 to 83,N#CC(=C1CCN(Cc2ccccc2)CC1)c1ccc(F)cc1
2,201,COc1nc2ncnn2c(N2CCC(C)CC2)c1-c1ccc(C)cc1F
3,98 to 100,CN1C(=O)C2C3C=CC(C3)C2(c2cccc(Cl)c2)C1=O (configuration not stated)
4,131 to 134,O=C(O)Cc1ccccc1OCCNC(=O)C1Cc2ccccc2N1S(=O)(=O)c1ccc(-c2cccc(C(F)(F)F)c2)cc1 (configuration not stated)
5,169 to 170,O=S(=O)(Nc1ccc2c(OCc3ccc(-c4ccc(Cl)c(Cl)c4)cc3Cl)cccc2c1)C(F)(F)F
6,64,CNC(=O)[C@@H]1C[C@H](OC)CN1S(=O)(=O)c1ccc(Cl)c(COc2cccc3c(-n4ccnc4)cc(C)nc23)c1Cl
7,248,CCn1c(N)c(-c2nccn2COCC[Si](C)(C)C)c(=O)c2ccc(-c3ccc(C(C)C(=O)O)cc3)nc21 (configuration not stated)
8,> 400,CSc1nc2ccc(C)cc2c2nn(-c3ccccc3)c(=O)n12
9,185 to 189,COc1ccc(-c2cc(=Nc3c(C)cc(C)cc3C)n(C)c(N3CCNCC3)n2)cc1OC
10,93 to 94,CCOC(=O)/C(=C\Nc1cc(OC)ccc1OC)c1ccccc1
11,130 to 131,COc1cc2c(c3c1OC1(CCCC1)C3)C(c1ccccc1)=NC(C)(C)C2
12,140 to 142,O=C1c2ccccc2-c2cc(Nc3nc(Nc4ccc5c(c4)-c4ccccc4C5=O)nc(-c4cccn4Cc4ccccc4)n3)ccc21
13,246,Nc1cccc(NC(=O)C(=O)C(=O)O)c1
14,299 to 300,CCC(=O)N[C@@H](C)C(=O)N[C@@H](C)C(=O)NC1CCCCC1
15,176 to 177,CCOC(=O)COc1ccc(SCc2ccc3nc(-c4ccc(C(F)(F)F)cc4)sc3c2)cc1C
16,206 to 207,Cc1ccc(C(O)c2c(OCc3ccccc3)c(=O)ccn2CCO)cc1 (configuration not stated)
17,70 to 75,CCOC(=O)CCNC(=O)CN1CCOc2ccc(NC(=O)NCc3ccccc3)cc2C1=O
18,76 to 77,O=C(O)CCCOc1cccc(OCc2ccccc2)c1
19,109 to 110,CC(C)(C)OC(=O)c1c(Cl)cc(N2C(=O)N3CCCC3(Cc3ccc(Br)cc3)C2=O)cc1Cl (configuration not stated)
20,96 to 98,CC(=O)OC1C(OC(=O)c2ccccc2)C(COC(=O)c2ccccc2)OC1n1cc(F)c(=O)[nH]c1=O (configuration not stated)
21,181,COc1ccc(-c2nc(-c3ccc(Cl)c(Cl)c3)ncc2C(=O)N2CCOCC2)cc1OC
22,237 to 238,C[C@@H](n1cnc2c(cnn2-c2ccc(Cl)cc2)c1=O)[C@](O)(Cn1cncn1)c1ccc(F)cc1F
23,116 to 117,Cc1nc(-n2cnn(CC3CC3)c2=O)sc1C(=O)NCc1cccnc1
24,100 to 104,CC(C)n1nc(O)nc1Cl

row,melting point [°C],Structure (SMILES)
1,116 to 117,CCC1(CCCCCl)C(=O)Nc2ccc(Cl)cc21 (configuration not stated)
2,117 to 119,CC1=CC(C)(C)Cc2c1nc(C(C)C)c(C(C)O)c2-c1ccc(F)cc1 (configuration not stated)
3,99 to 101,CCOC(=O)Cn1c(-c2cc(Cl)ccn2)nc2cccnc21
4,218,Cc1cc(-c2ncn3c(C(F)(F)F)cc(-c4ccc(C(F)(F)F)c(C(F)(F)F)c4)nc23)ccn1
5,167 to 168,Cc1nc(-n2ccn(Cc3ccc(F)cc3)c2=O)sc1C(=O)NCc1ccccc1
6,170,N#Cc1ccc(CNC(=O)c2ccc(C=O)cc2)cc1
7,> 280,O=C(O)c1cn(-c2ccc(F)c(O)c2)c2c(Cl)c(F)c(F)cc2c1=O
8,125 to 127,O=C(NC(=O)C(c1ccccc1)c1ccccc1)OCC(F)(F)F
9,219 to 220,O=c1nc(-c2ccccc2)c2cc([N+](=O)[O-])ccc2n1Cc1cccs1
10,88.5,N#Cc1cc(Br)cc(C(F)(F)F)n1
11,176 to 177,CCn1c(=S)c2[nH]c(C(C)C)nc2n(Cc2ccc(OC)c(OC3CCCC3)c2)c1=O
12,222 to 224,S=c1ncn(-c2ccc(Cl)cc2)[nH]1
13,245 to 247,O=CNCCNC1=NS(=O)(=O)c2cc(Cl)ccc2N1
14,145,Cc1cc([N+](=O)[O-])c(NC(C)C(=O)N(C)OS(C)(=O)=O)c([N+](=O)[O-])c1 (configuration not stated)
15,59.2 to 61.2,Cc1ncsc1CNc1ccc(-n2nc(C(F)(F)F)cc2C2CC2)cc1
16,105 to 107,CC(C)NC(=O)CC(O)(Cn1cncn1)c1ccc(Cl)cc1Cl (configuration not stated)
17,222 to 223,COC(=O)c1ccccc1NC(=O)c1c(-c2ccccc2)c(-c2ccc(F)cc2)c(C=O)n1C(C)C
18,84 to 86,C#CC[C@H]1CC[C@H](C(=O)O)CC1
19,166 to 167,Cc1cc(NC(=O)COc2ccccc2)cc(C)c1S(=O)(=O)C[N+](=O)[O-]
20,171 to 172,Cc1ccc(C(=O)c2ccc(Cc3ccc(NS(C)(=O)=O)cc3C#N)n2C)cc1
21,90,CCOC(=O)Cc1cc2c(N)cccc2cn1
22,220 to 221,CC(C)c1cc(-c2c3ccccc3c(Br)c3sc4ccccc4c23)cc(C(C)C)c1OCC(=O)O
23,225 to 228,CNS(=O)(=O)c1ccc(C2CCN(c3ccncc3)CC2)cc1
24,228 to 230,O=C1OC(=Cc2ccccc2C(F)(F)F)C(O)=C1c1ccc(-c2ccccc2)cc1

row,melting point [°C],Structure (SMILES)
1,166 to 167,O=C(O)CC(Br)c1ccc([N+](=O)[O-])cc1 (configuration not stated)
2,> 300,Cc1ccc2[nH]c3c(N)nn(C)c3c(=O)c2c1
3,200 to 204,N#Cc1ccc(Nn2cnnc2)cc1
4,173,COc1ccc(Cn2c(=O)oc(=O)c3cc(Cl)cnc32)cc1
5,129 to 131,O=C1CCCN(C(=O)c2ccccc2)C(=O)CCc2cc(Cl)ccc21
6,194 to 202,O=C1CCc2c(ccc3ccc(O)cc23)O1
7,213 to 214,CCCc1c(O)ccc2c(OCc3ccccc3)cc(=O)oc12
8,116 to 118,CCN(CC)CCNC(=O)N1CCCC(S(=O)(=O)c2ccc(C)cc2)C1 (configuration not stated)
9,70.2 to 70.9,CCCOC(=O)Oc1ccc(-c2ccc(C#N)cc2)cc1
10,235,Cc1[nH]c(/C=C2\C(=O)Nc3cc(NC(=O)c4c[nH]cc(-c5ccc(F)cc5)c4=O)ccc32)c(C)c1CC(=O)N1CCOCC1
11,185 to 187,Cc1c(-c2cc(Nc3cc4n(n3)CCN(C)C4)c(=O)n(CO)n2)cccc1N1Cc2cc(C(C)(C)C)sc2C1=O
12,144 to 145,COC(=O)c1ccc(C2CC(=O)NC2(CO)CO)c([N+](=O)[O-])c1 (configuration not stated)
13,180 to 182,CN1Cc2ccc(OCCCCN3CCN(c4cccc5ccccc45)CC3)nc2NC1=O
14,138 to 140,Cc1ccccc1-c1nc2n(c1-c1ccc(C3(NC(=O)OC(C)(C)C)CCC3)c(F)c1)-c1cccnc1Nc1ccccc1-2
15,163,COC(=O)CC[C@H](NC(=O)c1ccc(C#Cn2cnc3nc(C)c(OC(=O)C(C)(C)C)c-3c2O)cc1)C(=O)OC
16,157 to 158,N#CC(C(=O)Cl)=C(c1ccccc1)c1ccccc1
17,67 to 69,OCCOCc1nn(Cc2ccccc2)c2ccccc12
18,175,Cc1ccc(-c2cc(-c3ccccc3)n[nH]2)cc1
19,167 to 168,c1ccc(Cn2ccc(CN3CCC(c4ccccc4)(c4ccccc4)CC3)n2)cc1
20,223 to 226,O=C(O)CCCCN1CCN(C2=Nc3ccccc3Oc3ccc(Cl)cc32)CC1
21,112 to 113,CCN1C(=O)Cc2cc3occc3cc21
22,168,Cc1oc(-c2ccccc2)nc1COc1cccc(COc2cc(Cl)ccc2C(=O)O)c1

row,Structure (SMILES),melting point [°C]
1,O=C(O)C(=O)c1cn(Cc2ccccc2)c2ccc(Oc3ccc(C(F)(F)F)cc3Cl)cc12,152 to 154
2,O=C(CF)NOC(=O)C(F)(F)F,56 to 59
3,CC(=NO)c1cccc(NC(=O)NC2N=C(c3ccccc3F)c3cccc(C)c3N(CC(=O)N3CC4CCC(CC4)C3)C2=O)c1 (configuration not stated),199 to 208
